Reference: article PMC11175440, “Exploring hydrophilic 2,2-di(indol-3-yl)ethanamine derivatives against Leishmania infantum” (PLOS ONE, 2024)
Entries after “also recorded” stand apart in the source; their conditions may differ.

Experiments:
[1] = tested on: L. infantum MHOM/TN/80/IPT1 promastigotes; assay: L. infantum promastigotes viability assay; type: cell-based; conditions: 72 h; for IC50: scalar dilutions from 20 to 0.31 μM, mean and 95% CI; for inhibition at 20 µM: single dose 20 μM, 26°C
Method: The reference strain L. infantum MHOM/TN/80/IPT1 (WHO international reference strain) was purchased from ATCC (ATCC® 50134™) and cultured in Evans’s Modified Tobie Medium (EMTM) at 26–28°C. During the treatment with bisindole derivative compounds, the parasites were maintained in RPMI-PY medium as described previously
The activity of bisindole derivatives was first evaluated on late log/stationary phase L. infantum promastigotes resuspended in 96-well plates (100 μL/well) in complete RPMI-PY medium with a density of 2.5×10^6 parasites/mL. The anti-parasitic activity was initially investigated with the single dose of 20 μM of each compound for 72 h at 26°C. […] As positive control, the anti-leishmanial drug miltefosine (Sigma-Aldrich, Milan, Italy) was included. Each condition was carried out in duplicate. The promastigotes viability was evaluated using the CellTiter 96H aqueous non-radioactive cell proliferation assay (Promega, Madison, Wisconsin, USA), as previously reported. The efficacy of selected compounds was evaluated by determining the IC50 values using the non-linear regression curves in GraphPad Prism 8.0 (GraphPad Software, Inc., San Diego, CA, USA). The equation used for data fitting was Y = 100/(1+10^((LogIC50-X)*HillSlope)) (hillslope not constrained), where X is equal to the log of concentration and Y is the normalized response.

[2] = Cytotoxicity assay on PMA-differentiated THP-1 macrophage-like cells; type: cell-based, human; conditions: human, PMA-differentiated THP-1 macrophage-like cells; 72 h, scalar dilutions from 100 to 3.12 μM; mean and 95% CI
Method: (§1) The human monocytic cell line THP-1 (ECACC 88081201) was cultured in RPMI-1640 medium supplemented with 10% heat-inactivated fetal bovine serum (FBS), 2 mM L-glutamine, 10 g/L non-essential amino acid, 1 mM sodium pyruvate, 100 μg/mL streptomycin, […]. Cells were maintained in a humidified incubator at 37°C and 5% CO2. All cell culture reagents were purchased from Sigma-Aldrich (St. Louis, MO, USA).
(§2) The cytotoxicity of bisindole derivative compounds was evaluated on THP-1 cells. Briefly, cells were resuspended at a density of 5×10^6 cells/mL, 100 μL/well were seeded in a 96-well plate and treated for 48 h with 20 ng/mL phorbol myristic acid (PMA) to induce differentiation into macrophages-like cells. After cell adhesion, selected compounds were used at 4, 20, and 100 μM, for 72 h at 37°C. […] Compounds with cytotoxicity higher than 20 μM were further tested to determine CC50 with scalar dilutions 1:2 or 2:3 (from 100 to 3.12 μM).
(§3) The negative control (not-treated cells) and the anti-leishmanial drug miltefosine were included in each experiment. Each condition was carried out in duplicate. To evaluate the cytotoxicity of the selected compounds, the CellTiter 96H Aqueous Non-Radioactive Cell Proliferation Assay (Promega) was performed as described above. For each compound, the SI was calculated as the ratio between cytotoxicity in THP-1 and activity against L. infantum promastigotes.

THP-1 cells = assay: as above; type: cell-based, human; conditions: CC50 in THP-1 / IC50 against L. infantum promastigotes
Method: as §1, §2, §3

[3] = tested on: L. infantum intracellular amastigotes; assay: Anti-amastigote assay on infected THP-1 cells; type: cell-based; conditions: Leishmania infantum; THP-1 cells infected 24 h, 72 h treatment, 20 to 0.31 μM; read-out: IC50 against L. infantum intracellular amastigotes
Method: THP-1 cells were plated in a 96-well plate and differentiated as described above. […] Briefly, Leishmania cells were washed twice with PBS to remove any trace of serum and resuspended 1×10^7/mL PBS. […] Labeled parasites were washed three times with complete RPMI medium and used for the infection. […] To analyze the infection, cells were washed, formaldehyde/methanol fixed, stained with Hoechst dye, and observed with a fluorescence microscope. Images were acquired (at 5× magnification) at 494 nm excitation/521 nm emission (green) and 350 nm excitation/460 emission (blue) for CFSE and Hoechst staining, respectively. Automated cell counting of single-color images was performed with ImageJ software to monitor the infection: the promastigotes count on each green image was normalized with the cell count on the corresponding blue image. […] To calculate IC50, the percentage values of Leishmania cell count normalized to THP-1 cells were plotted against the log10 concentration (μM) of each compound.

infected THP-1 cells = assay: Cytotoxic effect on infected THP-1 cells (cell count, Hoechst staining); type: cell-based, human; conditions: 72 h, 1.25-20 μM
Method: THP-1 cells were plated in a 96-well plate and differentiated as described above. After differentiation, cells were infected with a parasite-to-cell ratio of 10:1 for 24 h with L. infantum MHOM/TN/80/IPT1 promastigotes previously stained with carboxyfluorescein succinimidyl ester (CFSE) dye (Invitrogen, Waltham, Massachusetts, USA) following manufacturer’s instructions. Briefly, Leishmania cells were washed twice with PBS to remove any trace of serum and resuspended 1×10^7/mL PBS. CFSE was then added at 5 μM final concentration, and promastigotes were incubated for 15 min at 37°C in the dark. The labeling was stopped by adding 4 volumes of cold complete media containing 10% serum and incubating in ice for 5 min. Labeled parasites were washed three times with complete RPMI medium and used for the infection. […] To analyze the infection, cells were washed, formaldehyde/methanol fixed, stained with Hoechst dye, and observed with a fluorescence microscope. Images were acquired (at 5× magnification) at 494 nm excitation/521 nm emission (green) and 350 nm excitation/460 emission (blue) for CFSE and Hoechst staining, respectively. Automated cell counting of single-color images was performed with ImageJ software to monitor the infection: the promastigotes count on each green image was normalized with the cell count on the corresponding blue image. The normalized value of infected non-treated cells was taken as 100%. To calculate IC50, the percentage values of Leishmania cell count normalized to THP-1 cells were plotted against the log10 concentration (μM) of each compound.
(B) The effect of treatment was monitored by counting the number of cells. Data are represented as mean ± SD. Two-way ANOVA; Dunnett’s multiple comparisons test; *adjusted p < 0.05, **adjusted p < 0.01.

[4] = tested on: L. infantum (MHOM/MA/67/ITMAP-263) axenic amastigotes; assay: In vivo anti-amastigote activity in BALB/c mice infection model (limiting dilution parasite burden); conditions: all the organs (spleen, liver, bone marrow); miltefosine 10 mg/kg/day per os, 10 days
Method: (§4) The compound URB1483 was selected for the in vivo evaluation on a BALB/c mice infection model. Six- to seven-week-old BALB/c mice were purchased from Charles River Laboratories (Barcelona, Spain) or the I3S (Porto, Portugal) animal facility. Luciferase-expressing L. infantum (MHOM/MA/67/ITMAP-263) axenic amastigotes were cultured in complete cell-free medium MAA/20 [20] at 37°C with 5% CO2. Five-day-old cultures of amastigotes were washed twice with PBS and resuspended at a concentration of 1×10^9 parasites/Ml. A total of 17 mice were infected with 100 μL of parasite suspension containing 1×10^8 parasites. The injection was performed intra-venously (IV) in the tails of mice, and treatments started 21 days post-infection for 10 consecutive days. Formulation studies are reported in the Supporting Information (S1 Table in S1 File). […]
(§5) Mice well-being-assessment was checked every two days, in terms of weight control and the presence of stress signs. […] Spleen and liver were weighted, and bone marrow cells were counted with automatic cell counter EVE^TM (NanoEnTek, Seul, Korea). […] For bone marrow, the number of parasites was calculated per 10^5 cells using the formula: [(geometric mean of reciprocal titer from each triplicate/number of cells) × reciprocal fraction of the cells inoculated into the first well]. […]

[5] = Well-being, body weight and organ weight of infected and treated BALB/c mice; type: in vivo; conditions: miltefosine 10 mg/kg/day per os
Method: as §4, §5

| IC50 ([1]; Leishmania infantum) [µM] | SMILES | inhibition at 20 µM ([1]; Leishmania infantum) [%] | CC50 at 72 h [2] [µM] | SI (CC50/IC50) (THP-1 cells) | further results |
| --- | --- | --- | --- | --- | --- |
| > 10 | NCC(c1c[nH]c2ccccc12)c1c[nH]c2ccccc12 [1a] | 82.3 |  |  | IC50 [1]: 12.9 µM |
| 8.6 | NCC(c1c[nH]c2cc(F)ccc12)c1c[nH]c2cc(F)ccc12 [1b] | 89.1 | 40.4 | 4.7 |  |
| 7.4 | NCC(c1c[nH]c2cc(Cl)ccc12)c1c[nH]c2cc(Cl)ccc12 [1c] | 95.6 | 39.4 | 5.3 |  |
|  | NCC(c1c[nH]c2cc(Br)ccc12)c1c[nH]c2cc(Br)ccc12 [1d, 2,2-bis(6-bromo-1H-indol-3-yl)ethanamine] | 96.8 |  |  |  |
|  | NCC(c1c[nH]c2ccc(I)cc12)c1c[nH]c2ccc(I)cc12 [1e] | 97.8 |  |  |  |
| 8.2 | COC(=O)c1ccc2c(C(CN)c3c[nH]c4cc(C(=O)OC)ccc34)c[nH]c2c1 [1f] | 89.7 | 40.1 | 4.9 |  |
|  | N#Cc1ccc2[nH]cc(C(CN)c3c[nH]c4ccc(C#N)cc34)c2c1 [1g] | -1.6 |  |  |  |
| 4.1 | Cn1cc(C(CN)c2cn(C)c3ccccc23)c2ccccc21 [1h] | 98 | 41.6 | 10.1 | IC50 [3]: 11.1 µM; cytotoxicity in the infection model (infected THP-1 cells): better toxicity profile than the commercial drug miltefosine; also recorded: better toxicity profile compared to the commercial drug miltefosine |
|  | Cn1cc(C(CN)c2cn(C)c3cc(Br)ccc23)c2ccc(Br)cc21 [1i] | 98 |  |  |  |
|  | CC(C)CNCC(c1c[nH]c2cc(Br)ccc12)c1c[nH]c2cc(Br)ccc12 [2a] | 97.8 |  |  |  |
|  | Fc1ccc(CNCC(c2c[nH]c3cc(Br)ccc23)c2c[nH]c3cc(Br)ccc23)cc1 [2b] | 98.2 |  |  |  |
| 2.7 | Clc1ccc(CNCC(c2c[nH]c3cc(Br)ccc23)c2c[nH]c3cc(Br)ccc23)cc1 [2c] | 98.1 | 11.7 | 4.3 | IC50 [3]: 6.8 µM; cytotoxicity in the infection model (infected THP-1 cells): high cellular toxicity |
| 3.9 | O=[N+]([O-])c1ccc(CNCC(c2c[nH]c3cc(Br)ccc23)c2c[nH]c3cc(Br)ccc23)cc1 [2d] | 95 | 13.2 | 3.4 |  |
|  | Cc1ccc(CNCC(c2c[nH]c3cc(Br)ccc23)c2c[nH]c3cc(Br)ccc23)cc1 [2e] | 95.8 |  |  |  |
|  | Brc1ccc2c(C(CNCc3ccco3)c3c[nH]c4cc(Br)ccc34)c[nH]c2c1 [2f] | 95.2 |  |  |  |
|  | Brc1ccc2c(C(CNCc3cccs3)c3c[nH]c4cc(Br)ccc34)c[nH]c2c1 [2g] | 95.5 |  |  |  |
|  | CC(C)C(=O)NCC(c1c[nH]c2cc(Br)ccc12)c1c[nH]c2cc(Br)ccc12 [3a] | 96.7 |  |  |  |
| 9.5 | O=C(NCC(c1c[nH]c2cc(Br)ccc12)c1c[nH]c2cc(Br)ccc12)c1ccc(F)cc1 [3b] | 97.7 | 21.9 | 2.3 |  |
|  | O=C(NCC(c1c[nH]c2cc(Br)ccc12)c1c[nH]c2cc(Br)ccc12)c1ccc(Cl)cc1 [3c] | 97.4 |  |  |  |
|  | O=C(NCC(c1c[nH]c2cc(Br)ccc12)c1c[nH]c2cc(Br)ccc12)c1ccc([N+](=O)[O-])cc1 [3d] | 90.4 |  |  |  |
| > 10 | COc1ccc(C(=O)NCC(c2c[nH]c3cc(Br)ccc23)c2c[nH]c3cc(Br)ccc23)cc1 [3e] | 95.2 |  |  | IC50 [1]: 12.2 µM |
|  | O=C(NCC(c1c[nH]c2cc(Br)ccc12)c1c[nH]c2cc(Br)ccc12)c1ccco1 [3f] | 97.2 |  |  |  |
|  | O=C(NCC(c1c[nH]c2cc(Br)ccc12)c1c[nH]c2cc(Br)ccc12)c1cccs1 [3g] | 96.9 |  |  |  |
| 9.8 | Cc1ccc(S(=O)(=O)NCC(c2c[nH]c3cc(Br)ccc23)c2c[nH]c3cc(Br)ccc23)cc1 [4a] | 96.9 | 20.2 | 2.1 |  |
|  | Cc1ccc(S(=O)(=O)NCC(c2cn(C)c3ccccc23)c2cn(C)c3ccccc23)cc1 [4b] | 45.7 |  |  |  |
|  | O=S(=O)(NCC(c1c[nH]c2cc(Br)ccc12)c1c[nH]c2cc(Br)ccc12)c1cccs1 [4c] | 97.6 |  |  |  |

| SMILES | IC50 ([1]; Leishmania infantum) [µM] | inhibition at 20 µM ([1]; Leishmania infantum) [%] | CC50 at 72 h [2] [µM] | SI (CC50/IC50) (THP-1 cells) | further results |
| --- | --- | --- | --- | --- | --- |
| CCCCCCCCCCCCCCCCOP(=O)([O-])OCC[N+](C)(C)C [miltefosine, reference compound] | 3.6 | 96.7 | 36.7 | 10.2 | IC50 [3]: 1.8 µM; reduction of parasite burden [4]: more than 99.9%; spleen weight ([5]; after 10 days of treatment, versus non-treated infected group): significantly lower to the non-treated group; weight decrease ([5]; infected BALB/c mice, from the second treatment): 10% |
